Reference: patent US20130164384A1, “METHODS OF TREATING BOWEL DISEASES BY ADMINISTERING A BOWEL CLEANSER AND AN ANTIBIOTIC” (Salix Pharmaceuticals, Ltd., priority 2008, published 2013)

System: subjects with dIBS
Assay: Study of three rifaximin doses in subjects with dIBS: adequate relief of IBS symptoms and bloating
Format: in vivo, human
Conditions: for Treatment effect (Bloating) / Treatment effect (IBS Sx): matches RFX 550 2 w minus PBO success rate; for Adequate Relief of Bloating: Failure / Adequate Relief of Bloating: Success / Adequate Relief of IBS Symptoms: Failure / Adequate Relief of IBS Symptoms: Success: end of treatment phase
Protocol: This example relates to a study of three rifaximin doses in subjects with dIBS. Subjects were randomized to receive daily BID doses of rifaximin 275 mg, 550 mg, or 1100 mg for 14 days. A fifth group of subjects received rifaximin 550 mg BID for a period of 28 days. Subjects were questioned on the relief of overall IBS symptoms and bloating. […] The analyses defined success as a “yes” response to questions regarding adequate relief of SGA or IBS-B in at least 2 out of the final 3 weeks of the double-blind treatment period.
Baseline severity was determined using 7-point Lickert scales during screening for Abdominal Pain/Discomfort and Bloating, and the number, type (normal, hard, loose) and urgency of bowel movements.
Duration of effect was assessed in a 12 week follow-up period. Subjects that responded in the 4 week double-blind treatment period were followed for an additional 3 months. Fifty-three (53) subjects from the 550 mg 2 w and 59 subjects from the placebo-treated groups participated in this study phase.
Subjects recorded the following information on dIBS symptoms daily throughout the duration of the study: • Number of normal stools/day; • Number of hard and lumpy stools/day; • Number of loose or watery stools/day; • Number of loose or watery stools/day with the symptom of urgency; • How bothersome is abdominal pain and discomfort? [7-point response scale: 0 (not at all) to 6 (a very great deal)]; • How bothersome is bloating? [(7-point response scale: 0 (not at all) to 6 (a very great deal)].
Weekly summary variables were computed by averaging the recorded values over all pre-treatment days or over the seven days preceding the time point of interest for post-treatment assessments. For example, baseline included Days −10 to 0, Week 1 included Days 1 to 7, Week 2 included Days 8 to 14, and so forth through Week 16. Changes from baseline variables were computed for each weekly summary score.

[1] = 550 mg BID for 2 weeks, success = yes in at least 2 of final 3 weeks
[2] = GI Cleanser Prior to Rifaximin Administration: N
[3] = GI Cleanser Prior to Rifaximin Administration: Y
[4] = RFX 275 2 w (275 mg BID 14 days), Had a Screening Colonoscopy: No
[5] = RFX 275 2 w (275 mg BID 14 days), Had a Screening Colonoscopy: Yes
[6] = RFX 275 2 w (275 mg BID 14 days), Screening Colonoscopy <=26 Days
[7] = RFX 275 2 w (275 mg BID 14 days), Screening Colonoscopy >26 Days
[8] = RFX 275 2 w (275 mg BID 14 days), had screening colonoscopy, Average Abdominal Pain Discomfort Score at Baseline <=4
[9] = RFX 275 2 w (275 mg BID 14 days), had screening colonoscopy, Average Abdominal Pain Discomfort Score at Baseline >4
[10] = RFX 275 2 w (275 mg BID 14 days), had screening colonoscopy, Average Bloating Discomfort Score at Baseline <=4
[11] = RFX 275 2 w (275 mg BID 14 days), had screening colonoscopy, Average Bloating Discomfort Score at Baseline >4
[12] = RFX 550 2 w (550 mg BID 14 days), Had a Screening Colonoscopy: No
[13] = RFX 550 2 w (550 mg BID 14 days), Had a Screening Colonoscopy: Yes
[14] = RFX 550 2 w (550 mg BID 14 days), Screening Colonoscopy <=26 Days
[15] = RFX 550 2 w (550 mg BID 14 days), Screening Colonoscopy >26 Days
[16] = RFX 550 2 w (550 mg BID 14 days), had screening colonoscopy, Average Abdominal Pain Discomfort Score at Baseline <=4
[17] = RFX 550 2 w (550 mg BID 14 days), had screening colonoscopy, Average Abdominal Pain Discomfort Score at Baseline >4
[18] = RFX 550 2 w (550 mg BID 14 days), had screening colonoscopy, Average Bloating Discomfort Score at Baseline <=4

In the case of COC1/C=C/OC2(C)Oc3c(C)c(O)c4c(O)c(c5c(nc6cc(C)ccn65)c4c3C2=O)NC(=O)/C(C)=C\C=C\C(C)C(O)C(C)C(O)C(C)C(OC(C)=O)C1C [RFX, (2S,16Z,18E,20S,21S,22R,23R,24R,25S,26S,27S,28E)-5,6,21,23,25 Pentahydroxy-27-methoxy-2,4,11,16,20,22,24,26-octamethyl-2,7-(epoxypentadeca-(1,11,13)trienimino)benzofuro(4,5-e)pyrido(1,2,-a)benzimidazole-1,15(2H)-dione,25-acetate], the “Duration of effect (maintaining symptom relief) versus placebo” value (550 mg BID 2 w responders, 12 week follow-up period) is reported as “better chance of maintaining symptom relief”, the “Adequate relief of IBS related symptoms (SGA) compared to placebo” value [1] is reported as “statistically significant relief” and the “Adequate relief of IBS-related bloating (IBS-B) compared to placebo” value [1] is reported as “statistically significant relief”. The “Treatment effect (Bloating)” value [2] was −0.9%, the “Treatment effect (IBS Sx)” value [2] was 4.7% and the “Treatment effect (Bloating)” value [3] was 13.8%. The “Treatment effect (IBS Sx)” value [3] was 11.6%, the “Adequate Relief of Bloating: Failure” value [4] was 36 (67.9%) n (%) and the “Adequate Relief of Bloating: Success” value [4] was 17 (32.1%) n (%). For the same compound, the “Adequate Relief of IBS Symptoms: Failure” value [4] was 32 (60.4%) n (%), the “Adequate Relief of IBS Symptoms: Success” value [4] was 21 (39.6%) n (%) and the “Adequate Relief of Bloating: Failure” value [5] was 24 (57.1%) n (%). For the same compound, the “Adequate Relief of Bloating: Success” value [5] was 18 (42.9%) n (%), the “Adequate Relief of IBS Symptoms: Failure” value [5] was 23 (54.8%) n (%) and the “Adequate Relief of IBS Symptoms: Success” value [5] was 19 (45.2%) n (%). For the same compound, the “Adequate Relief of Bloating: Failure” value [6] was 10 (55.6%) n (%), the “Adequate Relief of Bloating: Success” value [6] was 8 (44.4%) n (%) and the “Adequate Relief of IBS Symptoms: Failure” value [6] was 11 (61.1%) n (%). For the same compound, the “Adequate Relief of IBS Symptoms: Success” value [6] was 7 (38.9%) n (%), the “Adequate Relief of Bloating: Failure” value [7] was 14 (58.3%) n (%) and the “Adequate Relief of Bloating: Success” value [7] was 10 (41.7%) n (%). The “Adequate Relief of IBS Symptoms: Failure” value [7] was 12 (50.0%) n (%), the “Adequate Relief of IBS Symptoms: Success” value [7] was 12 (50.0%) n (%) and the “Adequate Relief of Bloating: Failure” value [8] was 22 (59.5%) n (%). The “Adequate Relief of Bloating: Success” value [8] was 15 (40.5%) n (%), the “Adequate Relief of IBS Symptoms: Failure” value [8] was 21 (56.8%) n (%) and the “Adequate Relief of IBS Symptoms: Success” value [8] was 16 (43.2%) n (%). The “Adequate Relief of Bloating: Failure” value [9] was 2 (40.0%) n (%), the “Adequate Relief of Bloating: Success” value [9] was 3 (60.0%) n (%) and the “Adequate Relief of IBS Symptoms: Failure” value [9] was 2 (40.0%) n (%). For the same compound, the “Adequate Relief of IBS Symptoms: Success” value [9] was 3 (60.0%) n (%), the “Adequate Relief of Bloating: Failure” value [10] was 22 (59.5%) n (%) and the “Adequate Relief of Bloating: Success” value [10] was 15 (40.5%) n (%). For the same compound, the “Adequate Relief of IBS Symptoms: Failure” value [10] was 21 (56.8%) n (%), the “Adequate Relief of IBS Symptoms: Success” value [10] was 16 (43.2%) n (%) and the “Adequate Relief of Bloating: Failure” value [11] was 2 (40.0%) n (%). For the same compound, the “Adequate Relief of Bloating: Success” value [11] was 3 (60.0%) n (%), the “Adequate Relief of IBS Symptoms: Failure” value [11] was 2 (40.0%) n (%) and the “Adequate Relief of IBS Symptoms: Success” value [11] was 3 (60.0%) n (%). For the same compound, the “Adequate Relief of Bloating: Failure” value [12] was 59 (62.1%) n (%), the “Adequate Relief of Bloating: Success” value [12] was 36 (37.9%) n (%) and the “Adequate Relief of IBS Symptoms: Failure” value [12] was 49 (51.6%) n (%). For the same compound, the “Adequate Relief of IBS Symptoms: Success” value [12] was 46 (48.4%) n (%), the “Adequate Relief of Bloating: Failure” value [13] was 44 (45.8%) n (%) and the “Adequate Relief of Bloating: Success” value [13] was 52 (54.2%) n (%). For the same compound, the “Adequate Relief of IBS Symptoms: Failure” value [13] was 42 (43.8%) n (%), the “Adequate Relief of IBS Symptoms: Success” value [13] was 54 (56.3%) n (%) and the “Adequate Relief of Bloating: Failure” value [14] was 18 (40.9%) n (%). The “Adequate Relief of Bloating: Success” value [14] was 26 (59.1%) n (%), the “Adequate Relief of IBS Symptoms: Failure” value [14] was 20 (45.5%) n (%) and the “Adequate Relief of IBS Symptoms: Success” value [14] was 24 (54.5%) n (%). The “Adequate Relief of Bloating: Failure” value [15] was 26 (50.0%) n (%), the “Adequate Relief of Bloating: Success” value [15] was 26 (50.0%) n (%) and the “Adequate Relief of IBS Symptoms: Failure” value [15] was 22 (42.3%) n (%). For the same compound, the “Adequate Relief of IBS Symptoms: Success” value [15] was 30 (57.7%) n (%), the “Adequate Relief of Bloating: Failure” value [16] was 38 (45.8%) n (%) and the “Adequate Relief of Bloating: Success” value [16] was 45 (54.2%) n (%). The “Adequate Relief of IBS Symptoms: Failure” value [16] was 37 (44.6%) n (%), the “Adequate Relief of IBS Symptoms: Success” value [16] was 46 (55.4%) n (%) and the “Adequate Relief of Bloating: Failure” value [17] was 6 (46.2%) n (%). The “Adequate Relief of Bloating: Success” value [17] was 7 (53.8%) n (%), the “Adequate Relief of IBS Symptoms: Failure” value [17] was 5 (38.5%) n (%) and the “Adequate Relief of IBS Symptoms: Success” value [17] was 8 (61.5%) n (%). For the same compound, the “Adequate Relief of Bloating: Failure” value [18] was 36 (45.0%) n (%), the “Adequate Relief of Bloating: Success” value [18] was 44 (55.0%) n (%) and the “Adequate Relief of IBS Symptoms: Failure” value [18] was 34 (42.5%) n (%). For the same compound, the “Adequate Relief of IBS Symptoms: Success” value [18] was 46 (57.5%) n (%) and the “Adequate Relief of Bloating: Failure” value (RFX 550 2 w (550 mg BID 14 days), had screening colonoscopy, Average Bloating Discomfort Score at Baseline >4) was 8 (50.0%) n (%).
